Data as given in US12466781B2, “Thyromimetics” (Autobahn Therapeutics, Inc., priority 2019, dated 2025).
Read-outs that look alike come from different tables or passages of the source.

What was measured:
[1] = target: T1, TRα (Homo sapiens, UniProt P10827); test: Thyroid-hormone reporter-gene assay (TRα-Gal4 hybrid, luciferase, HEK293); format: cell-based
T1 construct: expressed in transfected cells; host or cells: HEK293
T1 sequence (P10827 163-410 isoform P10827-2 limits assumed): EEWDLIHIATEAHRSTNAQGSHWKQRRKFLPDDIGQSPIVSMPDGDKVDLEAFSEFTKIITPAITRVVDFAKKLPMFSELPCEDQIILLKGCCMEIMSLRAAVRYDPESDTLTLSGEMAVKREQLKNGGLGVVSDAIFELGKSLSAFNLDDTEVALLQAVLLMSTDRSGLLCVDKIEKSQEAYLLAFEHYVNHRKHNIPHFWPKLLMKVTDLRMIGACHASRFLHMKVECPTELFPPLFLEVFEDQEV
Protocol: (§1) Compounds were tested for thyroid-hormone receptor activity using TR reporter-gene assays. Reporter cells used in the assays express a TR-receptor hybrid (either TRα or TRβ) in which the native N-terminal DNA binding domain (DBD) has been replaced with that of the yeast Gal4 DBD. The reporter gene, firefly luciferase, is functionally linked to the Gal4 upstream activation sequence (UAS). Both cell lines were derived from human embryonic kidney (HEK293).
(§2) Step 1: A suspension of reporter cells was prepared in cell recovery medium containing 10% charcoal-stripped FBS, and dispensed into assay plates. The plates were pre-incubated for 6 hours in a cell culture incubator (37° C./5% CO2/85% humidity).
(§3) These intermediate stocks were subsequently diluted directly into compound screening medium containing 10% charcoal-stripped FBS to generate “2×-concentration” treatment media (containing 0.2, 0.4 or 0.8% DMSO).
(§4) Step 3: At the end of the pre-incubation period, culture media were discarded from the assay plates, and all wells received 100 μl of compound screening medium. 100 μl of each of the previously prepared “2×-concentration” treatment media were dispensed into duplicate assay wells, thereby achieving the desired final treatment concentrations. The final concentration of DMSO in all assay wells was 0.1, 0.2 or 0.4%. Assay plates were incubated for 24 hr in a cell culture incubator (37° C./5% CO2/85% humidity).
(§5) Step 4: At the 24 h assay endpoint, treatment media were discarded and 100 μl/well of luciferase detection reagent was added. Relative luminometer units (RLUs) were quantified from each assay well.

[2] = target: T2, TRβ (Homo sapiens, UniProt P10828); test: Thyroid-hormone reporter-gene assay (TRβ-Gal4 hybrid, luciferase, HEK293); format: cell-based; conditions: for T3-SI (selectivity index): calculated as EC50 (TRα)/EC50 (TRβ)
T2 construct: expressed in transfected cells; host or cells: HEK293
T2 sequence (P10828 217-461 limits assumed): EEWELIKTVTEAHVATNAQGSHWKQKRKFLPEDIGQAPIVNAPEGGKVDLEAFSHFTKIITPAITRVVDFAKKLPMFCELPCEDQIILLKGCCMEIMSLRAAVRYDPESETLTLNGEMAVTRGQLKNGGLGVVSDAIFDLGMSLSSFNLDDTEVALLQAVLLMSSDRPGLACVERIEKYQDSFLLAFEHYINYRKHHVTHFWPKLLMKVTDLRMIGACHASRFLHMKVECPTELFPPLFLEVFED
Protocol: as §1, §2, §3, §4, §5

[3] = reporter cells, 24 hr incubation, Table 2, read-out: TRα (EC50)
[4] = reporter cells, 24 hr incubation, Table 2, read-out: TRβ (EC50)

SMILES	EC50 [1, 3] [nM]	T3-SI (selectivity index) ([2]; Table 2)	EC50 [2, 4] [nM]	EC50 ([1]; Table 3, read-out: EC50-TRα) [nM]	EC50 ([2]; Table 3, read-out: EC50-TRβ) [nM]	T3-SI ([2]; selectivity index, Table 3)
CCc1cc(OCC(=O)Nc2onc(C)c2C)cc(Cl)c1Cc1ccc(O)c(C(C)C)c1F [Compound 142, 2-(3-chloro-5-ethyl-4-(2-fluoro-4-hydroxy-3-isopropylbenzyl)phenoxy)-N-(3,4-dimethylisoxazol-5-yl)acetamide]	100 to 1000	++ (3×<T3-SI≤30×)	10 to 100			
CC(C)c1cc(Cc2c(Cl)cc(OCC(=O)O)cc2Cl)ccc1O [JD-21, reference compound]				190	79	14
Cc1cc(OCC(=O)O)cc(C)c1Cc1ccc(O)c(-c2cccc(OC(F)F)c2)c1F [Compound 3, 2-(4-((3′-(difluoromethoxy)-2-fluoro-6-hydroxy-[1,1′-biphenyl]-3-yl)methyl)-3,5-dimethylphenoxy)acetic acid]	> 1000	++ (3×<T3-SI≤30×)	100 to 1000			
CNC(=O)COc1cc(C)c(Cc2ccc(O)c(C(C)C)c2)c(F)c1F [Compound 133, 2-(2,3-difluoro-4-(4-hydroxy-3-isopropylbenzyl)-5-methylphenoxy)-N-methylacetamide]	10 to 100	++ (3×<T3-SI≤30×)	10 to 100			
CC(C)c1cc(Cc2c(C(C)C)cc(OCC(=O)O)c(F)c2Cl)ccc1O [Compound 81, 2-(3-chloro-2-fluoro-4-(4-hydroxy-3-isopropylbenzyl)-5-isopropylphenoxy)acetic acid]	10 to 100	++ (3×<T3-SI≤30×)	10 to 100			
O=C(O)COc1cc(Cl)c(Cc2ccc(O)c(Cc3ccc(F)cc3)c2F)c(Cl)c1F [Compound 103, 2-(3,5-dichloro-2-fluoro-4-(2-fluoro-3-(4-fluorobenzyl)-4-hydroxybenzyl)phenoxy)acetic acid]	10 to 100	+++ (T3-SI>30×)	10 to 100			
CCCC(c1ccc(F)cc1)c1c(O)ccc(Cc2c(Cl)cc(OCC(=O)O)cc2Cl)c1F (stereo not drawn) [Compound 34, 2-(3,5-dichloro-4-(2-fluoro-3-(1-(4-fluorophenyl)butyl)-4-hydroxybenzyl)phenoxy)acetic acid]	> 1000	++ (3×<T3-SI≤30×)	100 to 1000			
CNC(=O)COc1cc(C)c(Cc2ccc(O)c(C(C)C)c2)c(Cl)c1F [Compound 143, 2-(3-chloro-2-fluoro-4-(4-hydroxy-3-isopropylbenzyl)-5-methylphenoxy)-N-methylacetamide]	100 to 1000	+++ (T3-SI>30×)	10 to 100			
O=C(O)COc1cc(Cl)c(Cc2ccc(O)c(-c3cc(OC(F)F)ccc3F)c2F)c(Cl)c1F [Compound 101, 2-(3,5-dichloro-4-((5′-(difluoromethoxy)-2,2′-difluoro-6-hydroxy-[1,1′-biphenyl]-3-yl)methyl)-2-fluorophenoxy)acetic acid]	> 1000	++ (3×<T3-SI≤30×)	100 to 1000			
CCC(c1ccc(F)cc1)c1c(O)ccc(Cc2c(Cl)cc(OCC(=O)O)cc2Cl)c1F (stereo not drawn) [Compound 32, 2-(3,5-dichloro-4-(2-fluoro-3-(1-(4-fluorophenyl)propyl)-4-hydroxybenzyl)phenoxy)acetic acid]	100 to 1000	++ (3×<T3-SI≤30×)	10 to 100			

Further lines, results first:

EC50 [1, 3] [nM]	T3-SI (selectivity index) ([2]; Table 2)	EC50 [2, 4] [nM]	EC50 ([1]; Table 3, read-out: EC50-TRα) [nM]	EC50 ([2]; Table 3, read-out: EC50-TRβ) [nM]	T3-SI ([2]; selectivity index, Table 3)	SMILES
100 to 1000	+++ (T3-SI>30×)	10 to 100				Cc1c(OCC(=O)O)cc(Cl)c(Cc2ccc(O)c(C(C)C)c2)c1Cl [Compound 91, 2-(3,5-dichloro-4-(4-hydroxy-3-isopropylbenzyl)-2-methylphenoxy)acetic acid]
10 to 100	++ (3×<T3-SI≤30×)	< 10				Cc1c(F)c(OCC(=O)O)cc(Cl)c1Cc1ccc(O)c(C(C)C)c1F [Compound 112, 2-(5-chloro-2-fluoro-4-(2-fluoro-4-hydroxy-3-isopropylbenzyl)-3-methylphenoxy)acetic acid]
> 1000	++ (3×<T3-SI≤30×)	100 to 1000				CCc1c(F)c(OCC(=O)O)cc(Cl)c1Cc1ccc(O)c(C(C)C)c1 [Compound 69, 2-(5-chloro-3-ethyl-2-fluoro-4-(4-hydroxy-3-isopropylbenzyl)phenoxy)acetic acid]
10 to 100	++ (3×<T3-SI≤30×)	10 to 100				Cc1cc(OCC(=O)O)cc(Cl)c1Cc1ccc(O)c(C(C)C)c1F [Compound 36, 2-(3-chloro-4-(2-fluoro-4-hydroxy-3-isopropylbenzyl)-5-methylphenoxy)acetic acid]
< 10	++ (3×<T3-SI≤30×)	< 10				CC(C)c1c(O)ccc(Cc2c(Cl)cc(OCC(=O)O)cc2Br)c1F [Compound 40, 2-(3-bromo-5-chloro-4-(2-fluoro-4-hydroxy-3-isopropylbenzyl)phenoxy)acetic acid]
< 10	++ (3×<T3-SI≤30×)	< 10				CC(C)c1cc(OCC(=O)O)cc(Cl)c1Cc1ccc(O)c(C(C)C)c1F [Compound 47, 2-(3-chloro-4-(2-fluoro-4-hydroxy-3-isopropylbenzyl)-5-isopropylphenoxy)acetic acid]
100 to 1000	+++ (T3-SI>30×)	10 to 100				C=Cc1cc(OCC(=O)O)c(F)c(Cl)c1Cc1ccc(O)c(C(C)C)c1 [Compound 75, 2-(3-chloro-2-fluoro-4-(4-hydroxy-3-isopropylbenzyl)-5-vinylphenoxy)acetic acid]
100 to 1000	++ (3×<T3-SI≤30×)	10 to 100				CC(C)c1c(O)ccc(Cc2c(Cl)cc(OCC(=O)O)cc2Cl)c1Cl [Compound 49, 2-(3,5-dichloro-4-(2-chloro-4-hydroxy-3-isopropylbenzyl)phenoxy)acetic acid]
> 1000	++ (3×<T3-SI≤30×)	100 to 1000				COc1c(Cc2c(Cl)cc(OCC(=O)O)cc2Cl)ccc(O)c1C(C)C [Compound 54, 2-(3,5-dichloro-4-(4-hydroxy-3-isopropyl-2-methoxybenzyl)phenoxy)acetic acid]
100 to 1000	+++ (T3-SI>30×)	10 to 100				C=C(C)c1cc(OCC(=O)O)c(F)c(Cl)c1Cc1ccc(O)c(C(C)C)c1 [Compound 79, 2-(3-chloro-2-fluoro-4-(4-hydroxy-3-isopropylbenzyl)-5-(prop-1-en-2-yl)phenoxy)acetic acid]
< 10	++ (3×<T3-SI≤30×)	< 10				Cc1cc(OCC(=O)O)cc(C(C)C)c1Cc1ccc(O)c(C(C)C)c1F [Compound 13, 2-(4-(2-fluoro-4-hydroxy-3-isopropylbenzyl)-3-isopropyl-5-methylphenoxy)acetic acid]
> 1000	++ (3×<T3-SI≤30×)	100 to 1000				C=C(C)c1c(F)c(OCC(=O)O)cc(Cl)c1Cc1ccc(O)c(C(C)C)c1F [Compound 121, 2-(5-chloro-2-fluoro-4-(2-fluoro-4-hydroxy-3-isopropylbenzyl)-3-(prop-1-en-2-yl)phenoxy)acetic acid]
10 to 100	++ (3×<T3-SI≤30×)	10 to 100				CCc1cc(OCC(=O)O)c(F)c(Cl)c1Cc1ccc(O)c(C(C)C)c1 [Compound 77, 2-(3-chloro-5-ethyl-2-fluoro-4-(4-hydroxy-3-isopropylbenzyl)phenoxy)acetic acid]
100 to 1000	++ (3×<T3-SI≤30×)	10 to 100				CC(C)c1c(O)ccc(Cc2c(Cl)cc(OCC(=O)O)c(F)c2C(C)C)c1F [Compound 123, 2-(5-chloro-2-fluoro-4-(2-fluoro-4-hydroxy-3-isopropylbenzyl)-3-isopropylphenoxy)acetic acid]
10 to 100	++ (3×<T3-SI≤30×)	10 to 100				CC(c1ccc(F)cc1)c1c(O)ccc(Cc2c(Cl)cc(OCC(=O)O)c(F)c2Cl)c1F (stereo not drawn) [Compound 107, 2-(3,5-dichloro-2-fluoro-4-(2-fluoro-3-(1-(4-fluorophenyl)ethyl)-4-hydroxybenzyl)phenoxy)acetic acid]
